The values below come from patent publication US20230173082A1, “ANTIBACTERIAL PRODUCTS” (UNIVERSITY OF LINCOLN, priority 2014, published 2023).

“And” between values parts separate entries of the source, which are not always exact repeats. Equal values may be shown once. Read-outs that look alike come from different tables or passages of the source.

The test system of one data set is A. Baumannii 19606. As to the kind of experiment: MIC testing (MIC/MBC), broth dilution. To be noted: runs A, B, C, delivery agents with Moenomycin A at 1:2 ratio; for MIC: 24 hours at 37° C. In kind it is cell-based. As to the method: (§1) • The bacteria were grown in 5 ml of Mueller Hinton Broth overnight at 37° C. • The inhibitor was tested on its own or in conjunction with a cell penetrating peptide (CPP). • When tested with a CPP they were incubated together at room temperature for 1 hour before use. • Delivery agents (Compound 5, Compound 6, and 7) were used at a 1:2 ratio.
(Broth dilution looks for growth in wells or tubes with falling amounts of substance.)

The subject of another data set is B. Subtilis 2410. Put plainly: MIC testing (MIC/MBC), broth dilution. To be noted: delivery agents with Moenomycin A at 1:2 ratio. It is filed as cell-based. As to the method: as §1
In a further data set the test system is E. Coli 25922. As to the kind of experiment: MIC testing (MIC/MBC), broth dilution. It is filed as cell-based. To be noted: delivery agents with Moenomycin A at 1:2 ratio. As for the experimental part: as §1
The next data set deals with K. Pneumonia 700603. Put plainly: MIC testing (MIC/MBC), broth dilution. It is filed as cell-based. Particulars: runs A, B, C, delivery agents with Moenomycin A at 1:2 ratio; for MIC: 24 hours at 37° C. As for the experimental part: as §1
The next data set has as its system P. Aeruginosa 27853. As to the kind of experiment: MIC testing (MIC/MBC), broth dilution. It is filed as cell-based. Particulars: runs A, B, C, delivery agents with Moenomycin A at 1:2 ratio; for MIC: 24 hours at 37° C. As to the method: as §1
The subject of data set [1] is mammalian cells. As to the kind of experiment: Mammalian cytotoxicity (cell type not stated).
The next data set has as its system tumor cell line 786-O. As to the kind of experiment: In vitro cell viability in tumor cell line 786-O. Particulars: initial in vitro testing. In kind it is cell-based.
In a further data set the test system is HeLa cells. Put plainly: In vitro toxicity testing in HeLa cells. In kind it is cell-based.
Data set [2] concerns mammalian cells.
[3] abbreviates: Acinetobacter baumannii, read-out: MIC.
The mark [4] stands for this setting: Bacillus subtilis, read-out: MBC.
The mark [5] stands for this setting: Bacillus subtilis, read-out: MIC.
Where [6] appears, read: Escherichia coli, read-out: MIC.
[7] abbreviates: Pseudomonas aeruginosa, read-out: MIC.
Where [8] appears, read: Pseudomonas aeruginosa, read-out: MBC.
[9] abbreviates: Escherichia coli, read-out: MBC.

As for `C=C(C/C=C(\C)CCC=C(C)C)CCC(C)(C)/C=C/CC/C(C)=C/CO[C@@H](COP(=O)(O)O[C@H]1O[C@H](C(N)=O)[C@@](C)(O)[C@H](OC(N)=O)[C@H]1O[C@@H]1O[C@H](CO[C@@H]2O[C@H](CO)[C@@H](O)[C@H](O)[C@H]2O)[C@@H](O[C@@H]2O[C@H](C)[C@@H](O[C@@H]3O[C@H](C(=O)NC4=C(O)CCC4=O)[C@H](O)[C@H](O)[C@H]3O)[C@H](O)[C@H]2NC(C)=O)[C@H](O)[C@H]1NC(C)=O)C(=O)O` [Moenomycin A, reference compound], the MIC in the data set on A. Baumannii 19606 is 4 µg/mL and 8 µg/mL; in the data set on B. Subtilis 2410, 256 µg/mL; with E. Coli 25922, 32 µg/mL; in the data set with K. Pneumonia 700603, 64 µg/mL; in the data set on P. Aeruginosa 27853, 256 µg/mL. In addition, the MBC with A. Baumannii 19606 was 8 µg/mL; in the data set with B. Subtilis 2410, “Growth in all wells”; in the data set with E. Coli 25922, 128 µg/mL; in the data set on K. Pneumonia 700603, 128 µg/mL; in the data set on P. Aeruginosa 27853 it was “Growth in all wells”. Besides, the “concentration up to which no toxicity was observed” value with mammalian cells [1] is reported as “up to 10 mg/mL”.
On to `CCCCCCCCCCCCCCCCCC(=O)OC(COC(COCC(COC(=O)NCCCN(C)CCCN)OC(=O)NCCCN(C)CCCN)COCC(COC(=O)NCCCN(C)CCCN)OC(=O)NCCCN(C)CCCN)COC(COCC(COC(=O)NCCCN(C)CCCN)OC(=O)NCCCN(C)CCCN)COCC(COC(=O)NCCCN(C)CCCN)OC(=O)NCCCN(C)CCCN` (centres unmarked) [Compound 6], for which the minimal inhibitory concentration (MIC) in the data set on A. Baumannii 19606 (setting [3]) stood at 256 µg/mL; in the data set on B. Subtilis 2410 (setting [5]), 32 µg/mL; in the data set on E. Coli 25922 (setting [6]) it was 256 µg/mL; with P. Aeruginosa 27853 (setting [7]) it was 256 µg/mL. The MBC with A. Baumannii 19606 (Acinetobacter baumannii, read-out: MBC) was 256 µg/mL; in the data set on B. Subtilis 2410 (setting [4]) it was 32 µg/mL; in the data set with P. Aeruginosa 27853 (setting [8]), 256 µg/mL. Further, the “effect on cell viability” value with tumor cell line 786-O is “did not affect the cell viability”. The “concentration at which toxic” value in the data set with HeLa cells worked out at 20000 ng/mL.
As to `CCCCCCCCCCCCCCCCCC(=O)OC(COCC(COC(=O)NCCCN(C)CCCN)OC(=O)NCCCN(C)CCCN)COCC(COC(=O)NCCCN(C)CCCN)OC(=O)NCCCN(C)CCCN` (centres unmarked) [Compound 5], the MBC in the data set with B. Subtilis 2410 (setting [4]) was 32 µg/mL; in the data set on E. Coli 25922 (setting [9]) it was 128 µg/mL; in the data set with K. Pneumonia 700603 (Klebsiella pneumoniae, read-out: MBC), 128 µg/mL; with K. Pneumonia 700603, 64 µg/mL; with P. Aeruginosa 27853 (setting [8]) it was 256 µg/mL. The minimal inhibitory concentration (MIC) in the data set with B. Subtilis 2410 (setting [5]) turned out to be 32 µg/mL; with E. Coli 25922 (setting [6]), 64 µg/mL; with K. Pneumonia 700603 (Klebsiella pneumoniae, 24 h, read-out: MIC), 128 µg/mL; in the data set with K. Pneumonia 700603, 64 µg/mL; with P. Aeruginosa 27853 (setting [7]), 256 µg/mL.
In the case of `C#CC(=O)N[C@@H](CCCNC(=N)N)C(=O)N[C@@H](CCCNC(=N)N)C(=O)N[C@@H](CCCNC(=N)N)C(=O)N[C@@H](CCCNC(=N)N)C(=O)N[C@@H](CCCNC(=N)N)C(=O)N[C@@H](CCCNC(=N)N)C(=O)N[C@@H](CCCNC(=N)N)C(=O)N[C@@H](CCCNC(=N)N)C(N)=O` [Compound 8], the “concentration up to which no toxicity was observed” value in the data set with mammalian cells [2] is reported as “up to 110 µg/mL”.
On to `CC1(C)S[C@@H]2[C@H](NC(=O)[C@H](N)c3ccccc3)C(=O)N2[C@H]1C(=O)O` [Ampicillin, reference compound], for which the MIC in the data set with A. Baumannii 19606 (setting [3]) was 128 µg/mL; in the data set with B. Subtilis 2410 (setting [5]), 128 µg/mL; with E. Coli 25922 (setting [6]) it was 8 µg/mL; in the data set on K. Pneumonia 700603, “Growth in all wells”; in the data set on P. Aeruginosa 27853 it was “Growth in all wells”. The MBC result is “Growth in all wells” with A. Baumannii 19606; 256 µg/mL in the data set with B. Subtilis 2410 (setting [4]); 8 µg/mL in the data set on E. Coli 25922 (setting [9]); “Growth in all wells” in the data set on K. Pneumonia 700603; “Growth in all wells” in the data set on P. Aeruginosa 27853.
For the compound `N=C(N)NCCNC(=O)CCN(CCC(=O)NCCNC(=N)N)CCN(CCC(=O)NCCNC(=N)N)CCC(=O)NCCNC(=N)N` [Compound 7, 3,3’,3”,3”’-(Ethane-1,2-Divlbis(Azanetrivl)) Tetrakis(N-(2-Guanidinoethyl)Propanamide)], the minimum inhibitory concentration (MIC) result with A. Baumannii 19606, in the data set on K. Pneumonia 700603 and with P. Aeruginosa 27853 was “Growth in all wells” in each case. In addition, the MBC result in the data set with A. Baumannii 19606, in the data set on K. Pneumonia 700603 and with P. Aeruginosa 27853 was “Growth in all wells” throughout.

The term MIC denotes the lowest concentration that inhibits growth of the organism. In general, MBC refers to the smallest concentration meeting the test's criterion for killing.
